Experimental data reported in patent US6300368A, “Anilide derivatives and antiarrhythmic agents containing the same” (priority 1998, dated 2001).
Like-named read-outs stand apart in the source and are kept apart here.

Experiments:
ventricular function = conditions: cited from earlier work
Purkinje's fiber = experiment: Effects on ventricle: action potential of Purkinje's fiber from dog right ventricular free wall (Pharmacological Trial 2); format: cell-based; conditions: Canis lupus familiaris
Text: Pharmacological Trial 2: Evaluation of Effects on Ventricle
Method: Purkinje's fiber specimen excised from the right ventricular free wall of dog, perfused with normal Tyrode solution and driven by electrical stimulation (fundamental frequency=1 Hz) was used. Standard glass microelectrode was used to record action potential.

[1] = tested on: aconitin-induced atrial fibrillation; experiment: Aconitin-induced atrial fibrillation model in anaesthetized dogs (Pharmacological Trial 1); format: in vivo, dog; conditions: Canis lupus familiaris; intravenous, anesthetized dogs, as hydrochloride; read-out: minimum dose level which suppresses atrial fibrillation
Procedure: Pharmacological Trial 1: Evaluation of effectiveness in aconitin-induced atrial fibrillation model (dogs) Evaluation was performed according to K. Hashimoto (Jpn. J. Pharmacol., Vol. 46, 349-358, 1988) as follows:
Method: Dog was anesthetized and thoracotomy was made. Persistent atrial fibrillation was induced by placing a piece of filter paper impregnated with 0.5% aconitin solution (20 to 30 μl) on the right atrium. […] Onset and suppression of atrial fibrillation were monitored electrocardiographically by placing Ag--AgCl bipolar electrode on the right atrial auricle.
Results: Each compound in Examples 1 to 87 suppressed atrial fibrillation at least following dose level (all compounds were used in the form of hydrochloride).

SMILES	minimal effective dose [1] [mg/kg]	further results
CC(=O)Nc1ccc(OCCNC2CCCCC2)cc1 [4'-[2-(cyclohexylamino)ethoxy] acetanilide]	–	action on ventricular function (ventricular function): act suppressively on ventricular function
CC(C)N(CCC(C(N)=O)(c1ccccc1)c1ccccn1)C(C)C (centres unmarked) [Disopyramido]	–	inhibition at 30 µM (Purkinje's fiber; read-out: suppression of Vmax (maximum rate of rise for action potential)): 33%
CN(CCOc1ccc(NS(C)(=O)=O)cc1)CCc1ccc(NS(C)(=O)=O)cc1 [Dofetilide]	–	activation at 10 µM (Purkinje's fiber; read-out: extension of APD50 (duration to repolarize 50%)): 57%; activation at 10 µM (Purkinje's fiber; read-out: extension of APD75 (duration to repolarize 75%)): 45%; activation at 10 µM (Purkinje's fiber; read-out: extension of APD90 (duration to repolarize 90%)): 42%
Cc1cc(NC(=O)c2ccoc2)ccc1OCCNC(C)C.Cl [Example 79, 4'-[2-(Isopropylamino)ethoxy]-3'-methyl-3-furanilide Hydrochloride]	10	–
CCNCCOc1c(C)cc(NC(=O)c2ccccc2NS(C)(=O)=O)cc1C.Cl [Example 80, 4'-[2-(Ethylamino)ethoxy]-2-methanesulfonamido-3',5'-dimethylbenzanilide Hydrochloride]	3	–
CCNCCOc1c(C)cc(NC(=O)c2ccccc2S(C)(=O)=O)cc1C.Cl [Example 81, 4'-[2-(Ethylamino)ethoxy]-2-methanesulfonyl-3',5'-dimethylbenzanilide Hydrochloride]	3	–
COc1cccc(OC)c1C(=O)Nc1cc(C)c(OCCNC(C)C)c(C)c1.Cl [Example 82, 4'-[2-(Isopropylamino)ethoxy]-2,6-dimethoxy-3',5'-dimethyl benzanilide Hydrochloride]	10	–
Cc1cc(NC(=O)c2ccccc2S(C)(=O)=O)cc(C)c1OCCNC(C)C.Cl [Example 83, 4'-[2-(Isopropylamino)ethoxy]-2-methanesulfonyl-3',5'-dimethylbenzanilide Hydrochloride]	10	–
Cc1cc(NC(=O)C2CCOC2)cc(C)c1OCCNC(C)C.Cl (centres unmarked) [Example 84, 4'-[2-(Isopropylamino)ethoxy]-3',5'-dimethyl-2,3,4,5-tetrahydro-3-furanilide Hydrochloride]	10	–
Cc1cc(NC(=O)C2CCOCC2)cc(C)c1OCCNC(C)C.Cl [Example 85, 4'-[2-(Isopropylamino)ethoxy]-3',5'-dimethyl-3,4,5,6-tetrahydro-2H-pyran-4-carboxanilide Hydrochloride]	10	–
COCCC(=O)Nc1cc(C)c(OCCNC(C)C)c(C)c1.Cl [Example 86, 4'-[2-(Isopropylamino)ethoxy]-3-methoxy-3',5'-dimethyl propananilide Hydrochloride]	3	–
Cc1cc(NC(=O)c2ccoc2)cc(C)c1OCCNC(C)C.Cl [Example 87, 4'-[2-(Isopropylamino)ethoxy]-3',5'-dimethyl-3-furanilide Hydrochloride]	10	–
O=C(NCC1CCCCN1)c1cc(OCC(F)(F)F)ccc1OCC(F)(F)F (centres unmarked) [Flecanide]	–	inhibition at 3 µM (Purkinje's fiber; 3 μM, read-out: suppression of Vmax (maximum rate of rise for action potential)): 30%
CC(=O)Nc1ccc(OCCNC(C)C)cc1.Cl [Reference 1, 4'-[2-(Isopropylamino)ethoxy]acetanilide Hydrochloride]	–	action on ventricular function (ventricular function): act suppressively on ventricular function; inhibition at 30 µM (Purkinje's fiber; 30 μM, read-out: suppression of Vmax (maximum rate of rise for action potential)): 15%
